Experimental data taken from patent publication US8697840B2, “Peptide inhibition of lung epithelial apoptosis and pulmonary fibrosis” (Board of Regents, The University of Texas System, priority 2008, dated 2014).
Entries after “also recorded” stand apart in the source; their conditions may differ.

Legend:
[1] = tested on: uPA; assay: Western blot of bleo-treated Beas2B cells: uPA; format: cell-based, human; details: 40 μg/ml bleo, 28 h
Description: (§1) FIG. 4 depicts a set of Western blots showing the show the effect of bleo on uPA, uPAR, PAI-1 and p53 expression in LEC in vitro.
(§2) Beas2B cells were treated for 28 h with PBS or 40 μg/ml of bleo in the presence or absence of uPA or its ATF (20 nM), anti-β1-integrin monoclonal antibody (B1), (which activates β1-integrin by clustering), mouse IgG (mIgG), uPA+B1, uPA+mIgG, PP-1 (10 nM), or scrambled control peptide CP-1 (10 nM) at 37° C. In the case of uPA and PAI-1, the full length uPA was substituted with ATF, because uPA-mediated autoinduction or induction of PAI-1 occurs via the interaction of the ATF with uPAR (3-4). […] The membrane proteins were subjected to Western blotting using anti-uPAR antibody.

[2] = tested on: primary small airway epithelial (SAE) cells; assay: SAE cell proliferation, DNA synthesis by [3H]-thymidine uptake; format: cell-based, human; details: uPA between 5 and 20 nM; bleomycin 40 μg/ml as positive control
Description: FIGS. 2A-2B is a set of graphs showing dose-dependent induction of primary small airway epithelial (SAE) cell apoptosis and proliferation by uPA. FIG. 2A, SAE cells were treated for 48 h with 0-20 nM uPA at 37° C. Apoptotic cells were analyzed by flow cytometry using anti-annexin-V antibody and propidium iodide (PI). Bleo (40 μg/ml) was used as positive control (90). FIG. 2B, The cells were next treated with uPA as described in FIG. 1A and DNA synthesis was determined by [^3H]-thymidine uptake as described (5).

[3] = tested on: uPAR; assay: Western blot of bleo-treated Beas2B cells: uPAR; format: cell-based, human; details: 40 μg/ml bleo, 28 h
Description: as §1, §2

[4] = tested on: PAI-1; assay: Western blot of bleo-treated Beas2B cells: PAI-1; format: cell-based, human; details: 40 μg/ml bleo, 28 h
Description: as §1, §2

[5] = tested on: p53; assay: Western blot of bleo-treated Beas2B cells: p53; format: cell-based, human; details: 40 μg/ml bleo, 28 h
Description: as §1, §2

[6] = tested on: bleo-induced DNA fragmentation; assay: DNA fragmentation of genomic DNA from mouse lung extracts; format: in vivo; details: i.p. 0.1 ml osmotic minipump, 10 mM peptide, one day after intranasal bleo; lungs after 16 days
Description: Alternatively, PP-1 or CP-1 were administered in a continuous manner by i.p. implantation of an 0.1 ml osmotic minipump filled with PP-1 or CP-1 (10 mM or 2.92 mg/100 μl) one day after intranasal instillation of bleo. Lungs were harvested after 16 days. Total dose administered over that period was about 147 mg/kg. The apoptotic scores were calculated by counting the number of apoptotic cells in each field. Genomic DNA was isolated from saline, bleo, Bleo+PP-1 or Bleo+CP-1 mouse lung extracts, and subjected to DNA fragmentation.

[7] = tested on: Beas2B cells; assay: Bleo-induced apoptosis of Beas2B cells, flow cytometry (anti-Annexin-V antibody and propidium iodide); format: cell-based, human; details: 28 h, 40 μg/ml bleo, uPA 20 nM, anti-β1-integrin antibody 1 μg/ml, PP-1 10 nM
Description: FIG. 6 is a graph showing apoptosis (% apoptotic cells) after treatment of cells with a β1-integrin activator (anti-β1-integrin antibody), uPA, a combination of the antibody and uPA, or PP-1, along with appropriate controls. Beas2B cells were treated for 28 h with PBS or 40 μg/ml of Bleo in the presence or absence of uPA (20 nM) or PBS as control, with anti-β1-integrin antibody (1 μg/ml, B1), or mouse IgG (mIgG) as control, a combination of the antibody (or control antibody with uPA, and with PP-1 peptide (10 nM) or the CP-1 control peptide (10 nM) as described above at 37° C. Cells were harvested after trypsinization and LEC apoptosis was determined by flow cytometry after exposing the cells to anti-Annexin-V antibody and propidium iodide (as described for FIG. 2A).
Expression of p53 and PAI-1 shown in Example I were correlated with LEC apoptosis induced by bleo (FIG. 6). […] Beas2B cells were treated for 28 h with PBS or 40 μg/ml of bleo (Bleo) with uPA (20 nM), and/or anti-β1-integrin antibody (1 μg/ml, B1), control mouse IgG (mIgG) PP-1 peptide (10 nM) or CP-1 control peptide (10 nM) as described above at 37° C. Cells were trypsinized and LEC apoptosis was determined by flow cytometry after exposing the cells to anti-Annexin-V antibody and propidium iodide (as described for FIG. 2A).

| Substance | uPA expression [1] | cell proliferation of SAE cells [2] | uPAR expression [3] | PAI-1 expression [4] | p53 expression [5] | bleo-induced DNA fragmentation [6] | protection of LECs from bleo-induced apoptosis [7] |
| --- | --- | --- | --- | --- | --- | --- | --- |
| Bleomycin | suppressing | inhibited cell proliferation | suppressing | induced | induced | – | – |
| DGIWKASFTTFTVTKYWFYR [PP-1, residues 82-101 of human Cav-1, the caveolin-1 scaffolding domain] | – | – | – | – | – | protect against bleo-induced LEC apoptosis and DNA fragmentation | protected LECs from bleo-induced apoptosis; also recorded: more potent in protecting LECs than was uPA or anti-β1-integrin antibody |
